Assay results from patent US8952024B2, “Herbicidal pyrimidone derivatives” (E I du Pont de Nemours and Company, priority 2009, dated 2015).

Assays:
Test in all cases: Test B pre-/postemergence plant response
Assay type in all cases: in vivo
Details in all cases: Postemergence
kochia (Kochia scoparia) = tested on: kochia (Kochia scoparia)
Procedure, shortened: (§1)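 Visually scored on a 0 to 100 scale after 13 to 15 days in greenhouse versus controls. Treatments were preemergence on seeded loam/sand soil and postemergence on 1- to 4-leaf plants.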

[1] = tested on: downy bromegrass (Bromus tectorum)
Procedure, shortened: as §1

[2] = tested on: giant foxtail (Setaria faberii)
Procedure, shortened: as §1

[3] = tested on: johnsongrass (Sorghum halepense)
Procedure, shortened: as §1

corn (Zea mays) = tested on: corn (Zea mays)
Procedure, shortened: as §1

[4] = tested on: pigweed (Amaranthus retroflexus)
Procedure, shortened: as §1

[5] = tested on: Italian ryegrass (Lolium multiflorum)
Procedure, shortened: as §1

[6] = tested on: Surinam grass (Brachiaria decumbens)
Procedure, shortened: as §1

[7] = tested on: blackgrass (Alopecurus myosuroides)
Procedure, shortened: as §1

[8] = tested on: velvetleaf (Abutilon theophrasti)
Procedure, shortened: as §1

[9] = tested on: ragweed (common ragweed, Ambrosia elatior)
Procedure, shortened: as §1

soybean (Glycine max) = tested on: soybean (Glycine max)
Procedure, shortened: as §1

[10] = tested on: woolly cupgrass (Eriochloa villosa)
Procedure, shortened: as §1

COc1ccc(-n2c(-c3ccccc3)ncc(C(=O)C3=C(O)CCCC3=O)c2=O)cc1 [Compound 4, 5-[(2-hydroxy-6-oxo-cyclohexen-1-yl)carbonyl]-3-(4-methoxyphenyl)-2-phenyl-4(3H)-pyrimidinone]
pest or weed control at 31 g/ha (kochia (Kochia scoparia); Bassia scoparia, post-emergence, 31 g ai/ha, scale 0 to 100 (0 no effect, 100 complete control), read-out: Plant response rating, Kochia): 80%
pest or weed control at 62 g/ha (kochia (Kochia scoparia); Bassia scoparia, post-emergence, 62 g ai/ha, scale 0 (no effect) to 100 (complete control), 13 to 15 days, read-out: Plant response rating, Kochia): 100%
pest or weed control at 125 g/ha (kochia (Kochia scoparia); Bassia scoparia, post-emergence, 125 g ai/ha, visual rating after 13 to 15 days, scale 0 (no effect) to 100 (complete control)): 100%
Kochia plant response rating (kochia (Kochia scoparia); 250 g ai/ha, scale 0 to 100): 100
pest or weed control at 31 g/ha ([1]; Bromus tectorum, post-emergence, 31 g ai/ha, scale 0 to 100 (0 no effect, 100 complete control), read-out: Plant response rating, Bromegrass, Downy): 10%
pest or weed control at 62 g/ha ([1]; Bromus tectorum, post-emergence, 62 g ai/ha, scale 0 (no effect) to 100 (complete control), 13 to 15 days, read-out: Plant response rating, Bromegrass, Downy): 15%
pest or weed control at 125 g/ha ([1]; Bromus tectorum, post-emergence, 125 g ai/ha, visual rating after 13 to 15 days, scale 0 (no effect) to 100 (complete control)): 50%
Bromegrass, Downy plant response rating ([1]; 250 g ai/ha, scale 0 to 100): 55
Foxtail, Giant plant response rating ([2]; 250 g ai/ha, scale 0 to 100): 100
pest or weed control at 31 g/ha ([2]; Setaria faberi, post-emergence, 31 g ai/ha, scale 0 to 100 (0 no effect, 100 complete control), read-out: Plant response rating, Foxtail, Giant): 80%
pest or weed control at 62 g/ha ([2]; Setaria faberi, post-emergence, 62 g ai/ha, scale 0 (no effect) to 100 (complete control), 13 to 15 days, read-out: Plant response rating, Foxtail, Giant): 98%
pest or weed control at 125 g/ha ([2]; Setaria faberi, post-emergence, 125 g ai/ha, visual rating after 13 to 15 days, scale 0 (no effect) to 100 (complete control)): 98%
Johnsongrass plant response rating ([3]; 250 g ai/ha, scale 0 to 100): 98
pest or weed control at 31 g/ha ([3]; Sorghum halepense, post-emergence, 31 g ai/ha, scale 0 to 100 (0 no effect, 100 complete control), read-out: Plant response rating, Johnsongrass): 45%
pest or weed control at 62 g/ha ([3]; Sorghum halepense, post-emergence, 62 g ai/ha, scale 0 (no effect) to 100 (complete control), 13 to 15 days, read-out: Plant response rating, Johnsongrass): 80%
pest or weed control at 125 g/ha ([3]; Sorghum halepense, post-emergence, 125 g ai/ha, visual rating after 13 to 15 days, scale 0 (no effect) to 100 (complete control)): 95%
Corn plant response rating (corn (Zea mays); 250 g ai/ha, scale 0 to 100): 85
Corn plant response rating (crop injury, 0 = no effect, 100 = complete kill) at 31 g/ha (corn (Zea mays); Zea mays, post-emergence, 31 g ai/ha, scale 0 to 100 (0 no effect, 100 complete control)): 10%
Corn plant response rating (crop injury, 0 = no effect, 100 = complete kill) at 62 g/ha (corn (Zea mays); Zea mays, post-emergence, 62 g ai/ha, scale 0 (no effect) to 100 (complete control), 13 to 15 days): 25%
Corn plant response rating (crop injury, 0 = no effect, 100 = complete kill) at 125 g/ha (corn (Zea mays); Zea mays, post-emergence, 125 g ai/ha, visual rating after 13 to 15 days, scale 0 (no effect) to 100 (complete control)): 50%
pest or weed control at 31 g/ha ([4]; Amaranthus retroflexus, post-emergence, 31 g ai/ha, scale 0 to 100 (0 no effect, 100 complete control), read-out: Plant response rating, Pigweed): 100%
pest or weed control at 62 g/ha ([4]; Amaranthus retroflexus, post-emergence, 62 g ai/ha, scale 0 (no effect) to 100 (complete control), 13 to 15 days, read-out: Plant response rating, Pigweed): 100%
pest or weed control at 125 g/ha ([4]; Amaranthus retroflexus, post-emergence, 125 g ai/ha, visual rating after 13 to 15 days, scale 0 (no effect) to 100 (complete control)): 100%
Pigweed plant response rating ([4]; 250 g ai/ha, scale 0 to 100): 100
pest or weed control at 31 g/ha ([5]; Lolium multiflorum, post-emergence, 31 g ai/ha, scale 0 to 100 (0 no effect, 100 complete control), read-out: Plant response rating, Ryegrass, Italian): 10%
pest or weed control at 62 g/ha ([5]; Lolium multiflorum, post-emergence, 62 g ai/ha, scale 0 (no effect) to 100 (complete control), 13 to 15 days, read-out: Plant response rating, Ryegrass, Italian): 10%
pest or weed control at 125 g/ha ([5]; Lolium multiflorum, post-emergence, 125 g ai/ha, visual rating after 13 to 15 days, scale 0 (no effect) to 100 (complete control)): 15%
Ryegrass, Italian plant response rating ([5]; 250 g ai/ha, scale 0 to 100): 20
Surinam Grass plant response rating ([6]; 250 g ai/ha, scale 0 to 100): 90
pest or weed control at 31 g/ha ([6]; Urochloa decumbens, post-emergence, 31 g ai/ha, scale 0 to 100 (0 no effect, 100 complete control), read-out: Plant response rating, Surinam Grass): 60%
pest or weed control at 62 g/ha ([6]; Urochloa decumbens, post-emergence, 62 g ai/ha, scale 0 (no effect) to 100 (complete control), 13 to 15 days, read-out: Plant response rating, Surinam Grass): 70%
pest or weed control at 125 g/ha ([6]; Urochloa decumbens, post-emergence, 125 g ai/ha, visual rating after 13 to 15 days, scale 0 (no effect) to 100 (complete control)): 75%
pest or weed control at 31 g/ha ([7]; Alopecurus myosuroides, post-emergence, 360 h, 31 g ai/ha, scale 0 to 100 (0 no effect, 100 complete control), read-out: Plant response rating, Blackgrass): 10%
pest or weed control at 62 g/ha ([7]; Alopecurus myosuroides, post-emergence, 360 h, 62 g ai/ha, scale 0 (no effect) to 100 (complete control), 13 to 15 days, read-out: Plant response rating, Blackgrass): 20%
pest or weed control at 125 g/ha ([7]; Alopecurus myosuroides, post-emergence, 360 h, 125 g ai/ha, visual rating after 13 to 15 days, scale 0 (no effect) to 100 (complete control)): 30%
Blackgrass plant response rating ([7]; 250 g ai/ha, scale 0 to 100): 50
pest or weed control at 31 g/ha ([8]; Abutilon theophrasti, post-emergence, 360 h, 31 g ai/ha, scale 0 to 100 (0 no effect, 100 complete control), read-out: Plant response rating, Velvetleaf): 70%
pest or weed control at 62 g/ha ([8]; Abutilon theophrasti, post-emergence, 360 h, 62 g ai/ha, scale 0 (no effect) to 100 (complete control), 13 to 15 days, read-out: Plant response rating, Velvetleaf): 75%
pest or weed control at 125 g/ha ([8]; Abutilon theophrasti, post-emergence, 360 h, 125 g ai/ha, visual rating after 13 to 15 days, scale 0 (no effect) to 100 (complete control)): 90%
Velvetleaf plant response rating ([8]; 250 g ai/ha, scale 0 to 100): 100
pest or weed control at 31 g/ha ([9]; Ambrosia artemisiifolia, post-emergence, 360 h, 31 g ai/ha, scale 0 to 100 (0 no effect, 100 complete control), read-out: Plant response rating, Ragweed): 100%
pest or weed control at 62 g/ha ([9]; Ambrosia artemisiifolia, post-emergence, 360 h, 62 g ai/ha, scale 0 (no effect) to 100 (complete control), 13 to 15 days, read-out: Plant response rating, Ragweed): 100%
pest or weed control at 125 g/ha ([9]; Ambrosia artemisiifolia, post-emergence, 360 h, 125 g ai/ha, visual rating after 13 to 15 days, scale 0 (no effect) to 100 (complete control)): 100%
Ragweed plant response rating ([9]; 250 g ai/ha, scale 0 to 100): 100
plant injury at 31 g/ha (soybean (Glycine max); Glycine max, post-emergence, 31 g ai/ha, scale 0 to 100 (0 no effect, 100 complete control), read-out: Plant response rating, Soybean): 95%
plant injury at 62 g/ha (soybean (Glycine max); Glycine max, post-emergence, 62 g ai/ha, scale 0 (no effect) to 100 (complete control), 13 to 15 days, read-out: Plant response rating, Soybean): 100%
plant injury at 125 g/ha (soybean (Glycine max); Glycine max, post-emergence, 125 g ai/ha, visual rating after 13 to 15 days, scale 0 (no effect) to 100 (complete control)): 100%
Soybean plant response rating (soybean (Glycine max); 250 g ai/ha, scale 0 to 100): 100
pest or weed control at 31 g/ha ([10]; Eriochloa villosa, post-emergence, 31 g ai/ha, scale 0 to 100 (0 no effect, 100 complete control), read-out: Plant response rating, Cupgrass, Woolly): 75%
pest or weed control at 62 g/ha ([10]; Eriochloa villosa, post-emergence, 62 g ai/ha, scale 0 (no effect) to 100 (complete control), 13 to 15 days, read-out: Plant response rating, Cupgrass, Woolly): 95%
pest or weed control at 125 g/ha ([10]; Eriochloa villosa, post-emergence, 125 g ai/ha, visual rating after 13 to 15 days, scale 0 (no effect) to 100 (complete control)): 100%
Cupgrass, Woolly plant response rating ([10]; 250 g ai/ha, scale 0 to 100): 100
